For this test, the target named is T1, BTK (Homo sapiens, UniProt Q06187).
T1 construct: endogenous in cells; host or cells: TMD8 cells
T1 sequence (Q06187 whole entry): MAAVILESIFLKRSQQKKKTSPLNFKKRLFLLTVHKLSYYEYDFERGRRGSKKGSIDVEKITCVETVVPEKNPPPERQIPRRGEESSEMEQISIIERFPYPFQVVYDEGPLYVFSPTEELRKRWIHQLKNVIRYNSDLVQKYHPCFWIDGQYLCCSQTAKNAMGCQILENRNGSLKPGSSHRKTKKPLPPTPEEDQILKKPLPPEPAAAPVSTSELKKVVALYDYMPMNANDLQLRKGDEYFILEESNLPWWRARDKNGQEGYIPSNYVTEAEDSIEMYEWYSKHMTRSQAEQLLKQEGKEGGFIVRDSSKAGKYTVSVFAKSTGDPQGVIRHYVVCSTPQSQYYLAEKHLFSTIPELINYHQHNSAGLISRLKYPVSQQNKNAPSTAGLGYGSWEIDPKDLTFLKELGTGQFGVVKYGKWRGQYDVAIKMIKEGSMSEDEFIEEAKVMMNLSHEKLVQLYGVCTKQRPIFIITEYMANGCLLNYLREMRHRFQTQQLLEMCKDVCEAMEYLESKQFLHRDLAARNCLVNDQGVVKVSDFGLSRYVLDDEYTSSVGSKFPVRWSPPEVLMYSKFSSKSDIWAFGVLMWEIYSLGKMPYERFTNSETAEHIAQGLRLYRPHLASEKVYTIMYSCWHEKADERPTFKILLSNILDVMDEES
Description: Cellular BTK HTRF assay (BTK degradation) in TMD8 cells. The note with it: four hours incubation, Total-BTK HTRF relative to DMSO-treated cells. It is filed as cell-based. As to the method:
Example 66: BTK Degradation Assay
TMD8 cells were obtained from Tokyo Medical and Dental University and were grown in alpha-MEM (Fisher 12571063) supplemented with 10% heat-inactivated FBS (Corning Premium Fetal Bovine Serum from Fisher, MT35015CV).
Compounds of the present invention were added to 50,000 TMD8 cells in round-bottom 96 well plates with a final DMSO concentration of […] and were incubated at 37° C. 5% CO2 for four hours. BTK levels were determined using Cisbio Total-BTK HTRF ([…] Time-Resolved Fluorescence) kit (63ADK064PEG) according to manufacturer's protocol. Briefly, cells were incubated in 1× supplied lysis buffer for 30 minutes. In an opaque white low volume 96 well plate (Cisbio, 66PL96005), cell lysate was combined with two different specific BTK antibodies, one conjugated with Eu^3+-Cryptate FRET donor and one conjugated with d2 FRET acceptor. Assay controls include wells containing cell lysate with only the Eu^3+-Cryptate FRET donor antibody and wells containing both HTRF antibodies and lysis buffer without cells or control lysate provided by Cisbio. HTRF ratio was calculated as (acceptor signal at 665 nm/donor signal at 620 nm)×10^4. Background HTRF levels were determined from the control well containing the donor, but no acceptor, antibody. Background HTRF levels were subtracted from all samples. Readouts were reported as HTRF levels relative to HTRF levels of DMSO-treated cells. Four-parameter non-linear regressions were performed in GraphPad Prism 7.02 to obtain DC50 values. DC50 values are provided in Table 3, wherein A<5.0 nM, 5.0 nM≤B≤15 nM, and 15 nM<C.
As usually defined, the DC50 is the concentration giving 50% degradation. A high value points to a less potent degrader. On to `CN1CCN([C@@H]2CCCN(c3cnc(C(N)=O)c(Nc4ccc(C5CCN(C6CN(Cc7ccc8c(c7)CN(C7CCC(=O)NC7=O)C8=O)C6)CC5)cc4)n3)C2)C1=O` (some centres unmarked) [Compound 86], for which the half-maximal degradation concentration (DC50) is below 5 nM.
Molecule `CN1CCN([C@H]2CCCN(c3cnc(C(N)=O)c(Nc4ccc(C5CCN(C[C@H]6CCCN6c6ccc7c(c6)C(=O)N(C6CCC(=O)NC6=O)C7=O)CC5)cc4)n3)C2)C1=O` (some centres unmarked) [Compound 87] had a DC50 below 5 nM.
Turning to `CN1CCN([C@H]2CCCN(c3cnc(C(N)=O)c(Nc4ccc(N5CCN(CCCCc6cccc7c6CN(C6CCC(=O)NC6=O)C7=O)CC5)cn4)n3)C2)C1=O` (some centres unmarked) [Compound 88], the DC50 was above 15 nM.
Take `CN1CCN([C@@H]2CCCN(c3cnc(C(N)=O)c(Nc4ccc(N5CCN(C[C@H]6CCN(c7ccc8c(c7)C(=O)N(C7CCC(=O)NC7=O)C8=O)C6)CC5)cn4)n3)C2)C1=O` (some centres unmarked) [Compound 89]: the DC50 fell in the range of 5 to 15 nM.
The value for `CN1CCN([C@H]2CCCN(c3cnc(C(N)=O)c(Nc4ccc(C(=O)N5CCN(Cc6ccc7c(c6)C(=O)N(C6CCC(=O)NC6=O)C7=O)CC5)cc4)n3)C2)C1=O` (some centres unmarked) [Compound 90] was 5 to 15 nM; that for `CN1CCN([C@@H]2CCCN(c3cnc(C(N)=O)c(Nc4ccc(N5CC6CN(CC7CN(c8ccc9c(c8)C(=O)N(C8CCC(=O)NC8=O)C9=O)C7)CC6C5)cc4)n3)C2)C1=O` (some centres unmarked) [Compound 91] was below 5 nM; that for `CN1CCN([C@@H]2CCCN(c3cnc(C(N)=O)c(Nc4ccc(N5CCC6(CC5)CN(Cc5ccc7c(c5)C(=O)N(C5CCC(=O)NC5=O)C7=O)C6)cc4)n3)C2)C1=O` (some centres unmarked) [Compound 93] was below 5 nM.
The molecule `CN1CCN([C@H]2CCCN(c3cnc(C(N)=O)c(Nc4ccc(N5CCCC6(CN(Cc7ccc8c(c7)C(=O)N(C7CCC(=O)NC7=O)C8=O)C6)C5)cc4)n3)C2)C1=O` (some centres unmarked) [Compound 94] registered a half-maximal degradation concentration (DC50) below 5 nM.
The value for `CN1CCN([C@@H]2CCCN(c3cnc(C(N)=O)c(Nc4ccc(N5CC[C@@H]6CCN(Cc7ccc8c(c7)C(=O)N(N7CCC(=O)NC7=O)C8=O)C[C@@H]6C5)cc4)n3)C2)C1=O` [Compound 95] was 5 to 15 nM.
On to `CN1CCN([C@@H]2CCCN(c3cnc(C(N)=O)c(Nc4ccc(N5CCCC6(C5)CN(c5cccc7c5C(=O)N(C5CCC(=O)NC5=O)C7=O)C6)cc4)n3)C2)C1=O` (some centres unmarked) [Compound 96], for which the DC50 was above 15 nM.
As to `CN1CCN([C@H]2CCCN(c3cnc(C(N)=O)c(Nc4ccc(N5CCC6(CC5)CN(c5cccc7c5C(=O)N(C5CCC(=O)NC5=O)C7=O)C6)cc4)n3)C2)C1=O` (some centres unmarked) [Compound 97], the DC50 was above 15 nM.
In turn, `CN1CCN([C@H]2CCCN(c3cnc(C(N)=O)c(Nc4ccc(N5CCN(CC#Cc6ccc7c(c6)C(=O)N(C6CCC(=O)NC6=O)C7)CC5)cc4)n3)C2)C1=O` (some centres unmarked) [Compound 98] had a DC50 below 5 nM.
As for `CN1CCN([C@@H]2CCCN(c3cnc(C(N)=O)c(Nc4ccc(N5CCN(Cc6ccc7c(c6)C(=O)N(C6CCC(=O)NC6=O)C7=O)CC5)cc4)n3)C2)C1=O` (some centres unmarked) [Compound 100], the DC50 was above 15 nM.
As for `CN1CCN([C@@H]2CCCN(c3cnc(C(N)=O)c(Nc4ccc(N5CCN(C6CN(Cc7ccc8c(c7)C(=O)N(C7CCC(=O)NC7=O)C8=O)C6)CC5)cc4)n3)C2)C1=O` (some centres unmarked) [Compound 101], the 50% degradation concentration (DC50) is below 5 nM.
The value for `CN1CCN([C@H]2CCCN(c3cnc(C(N)=O)c(Nc4ccc(C5(C)CCN([C@H]6C[C@@H](Nc7cccc8c7C(=O)N(C7CCC(=O)NC7=O)C8=O)C6)CC5)cc4)n3)C2)C1=O` (some centres unmarked) [Compound 102] was below 5 nM.
The value for `CN1CCN([C@H]2CCCN(c3cnc(C(N)=O)c(Nc4ccc(C5(C)CCN([C@H]6C[C@H](Nc7cccc8c7C(=O)N(C7CCC(=O)NC7=O)C8=O)C6)CC5)cc4)n3)C2)C1=O` (some centres unmarked) [Compound 103] was below 5 nM; that for `CN1CCN([C@@H]2CCCN(c3cnc(C(N)=O)c(Nc4ccc(N5CCC6CCN(Cc7ccc8c(c7)C(=O)N(N7CCC(=O)NC7=O)C8=O)CC6C5)cc4)n3)C2)C1=O` (some centres unmarked) [Compound 104] was 5 to 15 nM.
Molecule `CN1CCN([C@@H]2CCCN(c3cnc(C(N)=O)c(Nc4ccc(N5CCC6CCN(c7cccc8c7C(=O)N(N7CCC(=O)NC7=O)C8=O)CC6C5)cc4)n3)C2)C1=O` (some centres unmarked) [Compound 105] yielded a DC50 above 15 nM.
Molecule `CN1CCN([C@H]2CCCN(c3cnc(C(N)=O)c(Nc4ccc(N5CC[C@H]6CCN(c7ccc8c(c7)C(=O)N(N7CCC(=O)NC7=O)C8=O)C[C@H]6C5)cc4)n3)C2)C1=O` [Compound 106] showed a DC50 of 5 to 15 nM.
In turn, `CN1CCN([C@H]2CCCN(c3cnc(C(N)=O)c(Nc4ccc(N5CC[C@@H]6CCN(c7ccc8c(c7)C(=O)N(N7CCC(=O)NC7=O)C8=O)C[C@H]6C5)cc4)n3)C2)C1=O` [Compound 107] displayed a DC50 above 15 nM.
For `CN1CCN([C@H]2CCCN(c3cnc(C(N)=O)c(Nc4ccc(N5CCC6(CCCN(Cc7ccc8c(c7)C(=O)N(N7CCC(=O)NC7=O)C8=O)C6)CC5)cc4)n3)C2)C1=O` [Compound 108] the value was 5 to 15 nM; for `CN1CCN([C@H]2CCCN(c3cnc(C(N)=O)c(Nc4ccc(N5CCC6(CC5)CCN(c5ccc7c(c5)C(=O)N(C5CCC(=O)NC5=O)C7=O)C6)cc4)n3)C2)C1=O` (some centres unmarked) [Compound 109], below 5 nM.
The value for `CN1CCN([C@H]2CCCN(c3cnc(C(N)=O)c(Nc4ccc(N5CCN(CCCCc6cccc7c6CN(C6CCC(=O)NC6=O)C7=O)CC5)nc4)n3)C2)C1=O` (some centres unmarked) [Compound 110] was below 5 nM; that for `CN1CCN([C@H]2CCCN(c3cnc(C(N)=O)c(Nc4ccc(N5CCCC6(C5)CN(c5ccc7c(c5)C(=O)N(C5CCC(=O)NC5=O)C7=O)C6)cc4)n3)C2)C1=O` (some centres unmarked) [Compound 111] was 5 to 15 nM.
Molecule `CN1CCN([C@H]2CCCN(c3cnc(C(N)=O)c(Nc4ccc(N5CCC6(CC5)CN(c5ccc7c(c5)C(=O)N(N5CCC(=O)NC5=O)C7=O)C6)cc4)n3)C2)C1=O` [Compound 112] yielded a DC50 below 5 nM.
`CN1CCN([C@@H]2CCCN(c3cnc(C(N)=O)c(Nc4ccc(N5CCN(C[C@H]6CCN(c7ccc8c(c7)C(=O)N(C7CCC(=O)NC7=O)C8=O)C6)CC5)nc4)n3)C2)C1=O` (some centres unmarked) [Compound 113] registered a DC50 below 5 nM.
The value for `CN1CCN([C@@H]2CCCN(c3cnc(C(N)=O)c(Nc4ccc(N5CC6CN(CC7CCN(c8ccc9c(c8)C(=O)N(N8CCC(=O)NC8=O)C9=O)CC7)CC6C5)cc4)n3)C2)C1=O` (some centres unmarked) [Compound 114] was below 5 nM; that for `CN1CCN([C@@H]2CCCN(c3cnc(C(N)=O)c(Nc4ccc(C5CCN(C[C@H]6CCN(c7ccc8c(=O)n(C9CCC(=O)NC9=O)ccc8c7)C6)CC5)cc4)n3)C2)C1=O` (some centres unmarked) [Compound 115] was below 5 nM.
The value for `CN1CCN([C@@H]2CCCN(c3cnc(C(N)=O)c(Nc4ccc(C5CCN(CC6CN(c7ccc8c(=O)n(C9CCC(=O)NC9=O)ccc8c7)C6)CC5)cc4)n3)C2)C1=O` (some centres unmarked) [Compound 116] was below 5 nM; that for `CN1CCN([C@@H]2CCCN(c3cnc(C(N)=O)c(Nc4ccc(C5CCN(C[C@H]6CCN(c7ccc8c(c7)CN(C7CCC(=O)NC7=O)C8=O)C6)CC5)cc4)n3)C2)C1=O` (some centres unmarked) [Compound 117] was below 5 nM.
For the molecule `CN1CCN([C@@H]2CCCN(c3cnc(C(N)=O)c(Nc4ccc(C5CN(CC6CCN(c7cnn(C8CCC(=O)NC8=O)c(=O)c7)CC6)C5)cc4)n3)C2)C1=O` (some centres unmarked) [Compound 118], the DC50 was below 5 nM.
Regarding `CN1CCN([C@@H]2CCCN(c3cnc(C(N)=O)c(Nc4ccc(C5CN(CC6CCN(c7ccc(-c8nn(C9CCC(=O)NC9=O)c(=O)n8C)cc7)CC6)C5)cc4)n3)C2)C1=O` (some centres unmarked) [Compound 119], the half-maximal degradation concentration (DC50) is below 5 nM.

These data come from patent US11479556B1, “Bifunctional compounds for degrading BTK via ubiquitin proteosome pathway” (NURIX THERAPEUTICS, INC., priority 2018, dated 2022).
